Laboratory results from patent EP0330444A2, “Novel thiorhodamines and a novel method of preparation” (EASTMAN KODAK COMPANY (a New Jersey corporation), priority 1988, dated 1989).

Experiments:
[1] = tested on: CX-1 Human Colon Carcinoma; experiment: In vitro IC50, adhering monolayer culture, neutral red staining, inhibition of cell growth; assay type: cell-based; conditions: 3 hours drug exposure under red light, then about 7 days growth (four cell-doubling times), neutral red absorbence at 540 nm, read-out: IC₅₀ CX-1 Human Colon Carcinoma
Description: (§1) The following is the procedure carried out in ascertaining the IC₅₀ concentrations of the thiorhodamines of this invention. (IC₅₀ is the in vitro molar concentration that inhibits 50% of tumor growth. The smaller the concentration, the higher the toxicity.):
(§2) For the IC₅₀ values for the human colon carcinoma and the human lung carcinoma lines, an adhering monolayer culture was used. Two days prior to plating, a number of cells obtained from the American Type Tissue Culture Collection was selected to grow as a stock, the number being that which would ensure the cells had not reached their plateau at the time of the in vitro test. On day 1 of the assay, asynchronous exponentially growing cells from this stock were suspended in a conventional complete medium comprising RPMI 1640 medium supplemented with 5% (v/v) fetal calf serum and 5% (v/v) NU serum obtained from Collaborative Research, and 20mM HEPES buffer, i.e., 4-(2-hydroxyethyl)-1-piperazineethanesulfonic acid. This was plated into a conventional 96-well tissue culture plate using a Cetus/Perkin Elmer automated pipetting device equipped with a dual supply manifold. The cells were then incubated for 48 hours at 37°C in a humidified atmosphere containing 5% CO₂. The cells were then incubated under red light for 3 hours in the presence of varying amounts of the compound of interest at 37°C in a humidified incubator containing 5% CO₂. Compounds were tested over a 6-log range of concentrations. After 3 hours the drug treated cells were then rinsed one time with complete medium as set forth above, and incubated in the complete medium the length of time appropriate to achieve four cell-doubling times (roughly 7 days for these cell lines). The medium was removed and the cells stained for 1-2 hours at 37°C with 0.1% (w/v) neutral red dye obtained from Eastman Kodak Co., dissolved in phosphate buffered saline (PBS) (without calcium or magnesium cations) at a pH of 6.85. The cells were rinsed twice with the same PBS and dried. Excess neutral red dye was eluted from each well with 50% (v/v) ethanol in 1% (v/v) glacial acetic acid. The absorbence of each well was quantitated using a Perkin-Elmer absorbence densitometer set at 540 nm. The % of inhibition of cell growth for a given concentration of compound was calculated using the equation: [formula] where At = absorbence of the cells treated with the candidate drug, Au = absorbence of the control treated with solvent only, and Ab = absorbence of the media and well only (background). […] The plotted data was then fitted to the curve for the function: F(x) = 100 - [100(X/A)^B/(1+(X/A)^B)] where x = the concentration of the test compound, A = the IC₅₀ value (50% inhibition on the plot) and B=the exponent of the fitted function. […]

[2] = tested on: A549 Human Lung Carcinoma; experiment: as above; assay type: cell-based; conditions: 3 hours drug exposure under red light, then about 7 days growth (four cell-doubling times), neutral red absorbence at 540 nm, read-out: IC₅₀ A549 Human Lung Carcinoma
Description: as §1, §2

Structure (SMILES)	IC50 [1] [nM]	IC50 [2] [nM]
COC(=O)c1ccccc1-c1c2ccc(N(C)C)cc2[s+]c2cc(N(C)C)ccc12 [Prep. 4, 3,6-bis(dimethylamino)-9-(2-methoxycarbonylphenyl)thioxanthylium chloride]	810	810
COC(=O)c1ccccc1-c1c2ccc(=N)cc-2oc2cc(N)ccc12 [Rhodamine 123]	> 12500	> 12500
